Reference: ChEMBL document CHEMBL5715954, “Silencing c-Myc translation as a therapeutic strategy through targeting PI3Kδ and CK1ε in hematological malignancies” (Blood, 2017)

Experiments:
Set-up in all cases: scale not given: the % may be the effect or the level left
[1] = target: Macrophage-stimulating protein receptor (Homo sapiens) (UniProt Q04912); assay: Inhibition of human RON assessed as enzyme activity at 1 uM using KKSRGDYMTMQIG as substrate preincubated for 20 mins followed by [gamma-33P]-ATP addition and measured after 120 mins by radiometric Hot-SpotSM Kinase assay relative to control
[2] = target: T1, Bone morphogenetic protein receptor type-2 (Homo sapiens) (UniProt Q13873); assay: Inhibition of human BMPR2 assessed as enzyme activity at 1 uM using myelin basic protein as substrate preincubated for 20 mins followed by [gamma-33P]-ATP addition and measured after 120 mins by radiometric Hot-SpotSM Kinase assay relative to control
T1 sequence (whole entry): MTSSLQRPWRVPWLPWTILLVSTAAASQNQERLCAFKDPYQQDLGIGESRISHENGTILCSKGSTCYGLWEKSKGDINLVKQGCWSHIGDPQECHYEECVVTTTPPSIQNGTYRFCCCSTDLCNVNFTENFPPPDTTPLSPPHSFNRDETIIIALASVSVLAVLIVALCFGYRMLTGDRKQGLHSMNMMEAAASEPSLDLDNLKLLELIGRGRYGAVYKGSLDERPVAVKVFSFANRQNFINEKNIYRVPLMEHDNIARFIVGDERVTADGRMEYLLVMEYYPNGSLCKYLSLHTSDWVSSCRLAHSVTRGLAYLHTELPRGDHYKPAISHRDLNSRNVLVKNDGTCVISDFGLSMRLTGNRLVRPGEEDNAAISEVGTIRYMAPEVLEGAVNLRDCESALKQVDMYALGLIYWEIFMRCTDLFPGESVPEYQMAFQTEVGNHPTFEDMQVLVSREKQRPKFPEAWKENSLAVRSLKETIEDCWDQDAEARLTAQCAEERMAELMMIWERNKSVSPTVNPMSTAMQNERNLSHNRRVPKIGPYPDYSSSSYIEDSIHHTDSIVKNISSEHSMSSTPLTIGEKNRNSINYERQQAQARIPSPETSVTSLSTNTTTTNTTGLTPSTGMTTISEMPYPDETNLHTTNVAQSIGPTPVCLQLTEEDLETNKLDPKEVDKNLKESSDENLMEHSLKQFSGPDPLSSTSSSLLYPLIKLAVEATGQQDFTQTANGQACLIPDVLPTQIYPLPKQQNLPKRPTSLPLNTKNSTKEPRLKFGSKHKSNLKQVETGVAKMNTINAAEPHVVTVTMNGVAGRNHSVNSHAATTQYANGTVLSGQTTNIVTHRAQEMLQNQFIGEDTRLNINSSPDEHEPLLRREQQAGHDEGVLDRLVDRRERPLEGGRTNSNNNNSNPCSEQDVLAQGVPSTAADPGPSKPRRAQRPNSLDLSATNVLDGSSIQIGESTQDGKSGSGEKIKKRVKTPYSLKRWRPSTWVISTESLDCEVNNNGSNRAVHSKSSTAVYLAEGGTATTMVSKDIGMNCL

[3] = target: Tyrosine-protein kinase JAK1 (Homo sapiens) (UniProt P23458); assay: Inhibition of human JAK1 assessed as enzyme activity at 1 uM using poly[Glu:Tyr] (4:1) as substrate preincubated for 20 mins followed by [gamma-33P]-ATP addition and measured after 120 mins by radiometric Hot-SpotSM Kinase assay relative to control
[4] = target: Fibroblast growth factor receptor 4 (Homo sapiens) (UniProt P22455); assay: Inhibition of human FGFR4 assessed as enzyme activity at 1 uM using poly[Glu:Tyr] (4:1) as substrate preincubated for 20 mins followed by [gamma-33P]-ATP addition and measured after 120 mins by radiometric Hot-SpotSM Kinase assay relative to control
[5] = target: T2, Ephrin type-A receptor 8 (Homo sapiens) (UniProt P29322); assay: Inhibition of human EPHA8 assessed as enzyme activity at 1 uM using poly[Glu:Tyr] (4:1) as substrate preincubated for 20 mins followed by [gamma-33P]-ATP addition and measured after 120 mins by radiometric Hot-SpotSM Kinase assay relative to control
T2 sequence (whole entry): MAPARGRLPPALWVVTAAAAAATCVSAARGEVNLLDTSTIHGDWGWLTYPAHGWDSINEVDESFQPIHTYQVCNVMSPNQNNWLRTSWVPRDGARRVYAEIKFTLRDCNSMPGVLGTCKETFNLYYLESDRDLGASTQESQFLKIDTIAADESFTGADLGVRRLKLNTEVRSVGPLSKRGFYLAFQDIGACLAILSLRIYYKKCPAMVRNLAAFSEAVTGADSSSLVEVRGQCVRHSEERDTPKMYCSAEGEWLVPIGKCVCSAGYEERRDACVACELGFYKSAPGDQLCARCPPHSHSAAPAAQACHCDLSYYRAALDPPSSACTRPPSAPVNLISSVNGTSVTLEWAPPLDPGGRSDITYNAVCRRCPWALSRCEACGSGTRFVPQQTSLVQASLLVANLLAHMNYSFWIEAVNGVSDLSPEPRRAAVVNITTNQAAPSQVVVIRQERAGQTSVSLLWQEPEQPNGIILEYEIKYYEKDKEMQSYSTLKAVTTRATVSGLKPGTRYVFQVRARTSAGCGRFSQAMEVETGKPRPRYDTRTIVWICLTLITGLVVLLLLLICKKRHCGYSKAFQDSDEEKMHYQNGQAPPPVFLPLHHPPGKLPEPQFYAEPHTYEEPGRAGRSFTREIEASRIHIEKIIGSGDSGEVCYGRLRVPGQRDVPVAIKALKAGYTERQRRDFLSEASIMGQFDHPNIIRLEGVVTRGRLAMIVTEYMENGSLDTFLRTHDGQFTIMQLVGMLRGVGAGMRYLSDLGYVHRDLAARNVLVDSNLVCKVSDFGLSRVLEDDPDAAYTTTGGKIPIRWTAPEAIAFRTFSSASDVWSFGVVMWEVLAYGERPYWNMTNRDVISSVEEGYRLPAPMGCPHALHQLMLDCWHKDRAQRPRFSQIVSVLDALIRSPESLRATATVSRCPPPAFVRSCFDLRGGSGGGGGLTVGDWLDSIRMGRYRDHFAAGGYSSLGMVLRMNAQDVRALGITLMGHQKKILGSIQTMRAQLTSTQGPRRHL

[6] = target: Leukocyte tyrosine kinase receptor (Homo sapiens) (UniProt P29376); assay: Inhibition of human TYK1/LTK assessed as enzyme activity at 1 uM using EAIYAAPFAKKK as substrate preincubated for 20 mins followed by [gamma-33P]-ATP addition and measured after 120 mins by radiometric Hot-SpotSM Kinase assay relative to control
Chain of Leukocyte tyrosine kinase receptor (Homo sapiens) (P29376 whole entry): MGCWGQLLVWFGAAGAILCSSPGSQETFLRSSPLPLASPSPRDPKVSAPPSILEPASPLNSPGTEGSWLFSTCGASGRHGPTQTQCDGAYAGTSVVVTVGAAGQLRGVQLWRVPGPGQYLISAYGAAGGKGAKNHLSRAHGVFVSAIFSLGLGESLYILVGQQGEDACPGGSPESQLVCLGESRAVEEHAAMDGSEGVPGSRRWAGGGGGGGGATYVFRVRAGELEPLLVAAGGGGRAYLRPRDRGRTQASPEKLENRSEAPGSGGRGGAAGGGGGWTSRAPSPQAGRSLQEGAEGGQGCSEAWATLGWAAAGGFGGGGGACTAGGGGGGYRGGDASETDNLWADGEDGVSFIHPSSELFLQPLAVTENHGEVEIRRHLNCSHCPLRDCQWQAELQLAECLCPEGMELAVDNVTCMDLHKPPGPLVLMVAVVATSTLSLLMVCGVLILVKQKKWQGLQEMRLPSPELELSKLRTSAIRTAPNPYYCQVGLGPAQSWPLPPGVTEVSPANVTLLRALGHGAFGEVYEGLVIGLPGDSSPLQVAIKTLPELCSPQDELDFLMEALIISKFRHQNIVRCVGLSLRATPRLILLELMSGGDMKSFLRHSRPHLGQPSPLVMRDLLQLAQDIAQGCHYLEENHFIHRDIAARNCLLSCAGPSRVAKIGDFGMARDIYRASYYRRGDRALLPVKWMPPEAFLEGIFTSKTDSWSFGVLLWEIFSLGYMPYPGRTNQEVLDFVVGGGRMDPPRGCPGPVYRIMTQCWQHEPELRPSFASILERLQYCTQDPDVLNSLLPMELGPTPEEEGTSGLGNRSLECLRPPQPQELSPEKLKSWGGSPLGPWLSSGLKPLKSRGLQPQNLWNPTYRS

Chain of Tyrosine-protein kinase JAK1 (Homo sapiens) (P23458 whole entry): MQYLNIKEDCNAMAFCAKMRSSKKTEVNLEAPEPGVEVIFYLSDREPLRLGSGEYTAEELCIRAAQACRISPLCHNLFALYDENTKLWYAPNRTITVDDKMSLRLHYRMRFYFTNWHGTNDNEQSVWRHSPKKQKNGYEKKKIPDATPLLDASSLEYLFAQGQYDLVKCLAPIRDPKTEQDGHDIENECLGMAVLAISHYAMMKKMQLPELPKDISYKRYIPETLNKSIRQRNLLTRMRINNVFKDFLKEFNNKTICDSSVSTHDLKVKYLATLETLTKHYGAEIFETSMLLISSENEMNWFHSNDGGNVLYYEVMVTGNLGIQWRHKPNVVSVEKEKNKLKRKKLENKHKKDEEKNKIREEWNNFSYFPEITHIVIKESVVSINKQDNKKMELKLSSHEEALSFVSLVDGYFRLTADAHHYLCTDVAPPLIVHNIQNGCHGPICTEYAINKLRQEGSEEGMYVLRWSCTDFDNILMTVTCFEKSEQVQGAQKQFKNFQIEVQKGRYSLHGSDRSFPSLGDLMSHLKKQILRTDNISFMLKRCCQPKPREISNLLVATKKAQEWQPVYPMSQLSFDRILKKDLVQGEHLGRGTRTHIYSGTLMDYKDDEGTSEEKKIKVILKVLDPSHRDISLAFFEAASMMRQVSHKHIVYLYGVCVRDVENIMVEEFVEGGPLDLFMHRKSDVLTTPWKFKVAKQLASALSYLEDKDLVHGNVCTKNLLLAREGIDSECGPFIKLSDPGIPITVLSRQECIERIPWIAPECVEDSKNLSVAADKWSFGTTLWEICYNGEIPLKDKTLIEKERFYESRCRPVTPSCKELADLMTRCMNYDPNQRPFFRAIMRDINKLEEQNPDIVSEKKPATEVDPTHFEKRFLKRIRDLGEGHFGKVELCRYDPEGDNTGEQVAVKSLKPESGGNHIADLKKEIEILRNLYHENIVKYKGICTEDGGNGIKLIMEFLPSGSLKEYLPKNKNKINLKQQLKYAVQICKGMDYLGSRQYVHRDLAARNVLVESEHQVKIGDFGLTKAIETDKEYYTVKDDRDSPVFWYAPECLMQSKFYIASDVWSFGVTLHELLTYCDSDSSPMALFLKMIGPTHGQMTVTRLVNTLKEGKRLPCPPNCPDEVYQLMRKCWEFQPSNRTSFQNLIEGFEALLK
Chain of Macrophage-stimulating protein receptor (Homo sapiens) (Q04912 25-304 limits assumed): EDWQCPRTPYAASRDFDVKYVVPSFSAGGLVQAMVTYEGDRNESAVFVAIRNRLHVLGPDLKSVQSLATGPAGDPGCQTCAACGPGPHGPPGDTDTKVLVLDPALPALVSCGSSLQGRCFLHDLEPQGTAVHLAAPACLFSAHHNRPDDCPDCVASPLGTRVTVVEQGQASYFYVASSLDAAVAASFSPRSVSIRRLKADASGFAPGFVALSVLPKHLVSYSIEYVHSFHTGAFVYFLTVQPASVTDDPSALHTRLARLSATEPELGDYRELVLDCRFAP
Chain of Macrophage-stimulating protein receptor (Homo sapiens) (Q04912 310-1400 limits assumed): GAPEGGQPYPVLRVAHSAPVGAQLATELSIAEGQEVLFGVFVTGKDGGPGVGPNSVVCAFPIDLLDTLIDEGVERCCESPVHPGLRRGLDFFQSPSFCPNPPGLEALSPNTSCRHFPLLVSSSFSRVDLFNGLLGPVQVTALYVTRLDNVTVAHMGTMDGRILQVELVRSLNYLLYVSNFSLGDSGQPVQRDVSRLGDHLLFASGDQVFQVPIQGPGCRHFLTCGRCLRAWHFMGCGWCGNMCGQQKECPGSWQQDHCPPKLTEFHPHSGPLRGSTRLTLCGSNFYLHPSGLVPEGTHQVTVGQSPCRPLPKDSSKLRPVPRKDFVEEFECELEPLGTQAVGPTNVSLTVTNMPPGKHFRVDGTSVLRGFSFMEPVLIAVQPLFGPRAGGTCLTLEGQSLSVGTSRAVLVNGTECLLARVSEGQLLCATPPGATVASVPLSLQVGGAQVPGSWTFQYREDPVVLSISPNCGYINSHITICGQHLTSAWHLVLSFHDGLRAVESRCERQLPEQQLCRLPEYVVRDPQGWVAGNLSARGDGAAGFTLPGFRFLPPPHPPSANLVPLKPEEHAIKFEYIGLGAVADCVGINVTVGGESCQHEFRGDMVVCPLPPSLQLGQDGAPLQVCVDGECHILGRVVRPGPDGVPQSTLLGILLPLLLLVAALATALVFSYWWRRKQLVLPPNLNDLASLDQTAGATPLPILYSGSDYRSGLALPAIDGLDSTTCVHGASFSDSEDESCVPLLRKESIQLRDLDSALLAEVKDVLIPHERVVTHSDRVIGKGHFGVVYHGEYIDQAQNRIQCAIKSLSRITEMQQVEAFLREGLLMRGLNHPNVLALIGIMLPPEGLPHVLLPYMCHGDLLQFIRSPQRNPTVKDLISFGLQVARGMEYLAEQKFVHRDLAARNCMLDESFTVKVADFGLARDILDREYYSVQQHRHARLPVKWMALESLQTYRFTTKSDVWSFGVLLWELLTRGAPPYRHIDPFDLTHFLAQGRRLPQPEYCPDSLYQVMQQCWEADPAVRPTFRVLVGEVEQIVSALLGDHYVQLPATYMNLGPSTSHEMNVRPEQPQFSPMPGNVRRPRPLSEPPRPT
Chain of Fibroblast growth factor receptor 4 (Homo sapiens) (P22455 22-802 limits assumed): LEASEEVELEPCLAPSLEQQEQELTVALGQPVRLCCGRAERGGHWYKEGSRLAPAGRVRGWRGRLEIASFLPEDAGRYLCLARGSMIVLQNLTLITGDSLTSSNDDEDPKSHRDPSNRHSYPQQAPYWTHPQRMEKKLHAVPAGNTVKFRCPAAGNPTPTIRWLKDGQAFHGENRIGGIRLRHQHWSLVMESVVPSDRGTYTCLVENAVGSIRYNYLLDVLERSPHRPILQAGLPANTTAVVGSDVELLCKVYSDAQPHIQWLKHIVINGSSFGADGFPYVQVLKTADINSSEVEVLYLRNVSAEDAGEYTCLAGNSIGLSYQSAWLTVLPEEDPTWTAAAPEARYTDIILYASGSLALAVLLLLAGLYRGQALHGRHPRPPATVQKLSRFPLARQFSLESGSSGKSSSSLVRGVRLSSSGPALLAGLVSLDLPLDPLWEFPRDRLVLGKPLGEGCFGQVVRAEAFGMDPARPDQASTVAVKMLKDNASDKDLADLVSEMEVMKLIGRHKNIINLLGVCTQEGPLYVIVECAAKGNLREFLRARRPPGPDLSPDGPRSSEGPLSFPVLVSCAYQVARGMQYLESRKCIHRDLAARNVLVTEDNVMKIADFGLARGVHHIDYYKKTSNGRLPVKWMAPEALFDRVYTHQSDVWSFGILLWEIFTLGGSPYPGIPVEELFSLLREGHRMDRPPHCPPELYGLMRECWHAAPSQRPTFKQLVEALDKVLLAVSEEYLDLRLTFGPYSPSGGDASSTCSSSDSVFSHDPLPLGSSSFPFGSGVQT

SMILES | Activity [1] | Activity [2] | Activity [3] | Activity [4] | Activity [5] | Activity [6]
C[C@H](Nc1ncnc2nc[nH]c12)c1cc2cccc(Cl)c2c(=O)n1-c1ccccc1 | 103% | 103% | 84.6% | 94.5% | 99.1% | 97.4%
CC[C@H](Nc1ncnc2[nH]cnc12)c1nc2cccc(F)c2c(=O)n1-c1ccccc1 | 108% | 107% | 85.6% | 97.3% | 97.6% | 94.8%
CC(C)Oc1ccc(-c2nn([C@@H](C)c3oc4ccc(F)cc4c(=O)c3-c3cccc(F)c3)c3ncnc(N)c23)cc1F [UMBRALISIB] | 104% | 107% | 83.4% | 93.2% | 95.8% | 92.5%
